In patent US5248684A, “Certain 2-oxo-quinoline carboxylates or corresponding carboxamides useful as anti-emetics and suppressants of migraine” (Kyowa Hakko Kogyo Co., Ltd., priority 1990, dated 1993):

Assays:
[1] = system: Cisplatin-induced vomiting; experiment: Activity against CisPlatin-induced vomiting; format: in vivo, Suncus murinus; conditions: 30 min before Cisplatin 40 mg/kg i.p.; for Number of Vomiting (Episodes) (mean ± S.E.M.): 5 to 120 min, control 28.0 ± 6.7; for Latency (mean ± S.E.M.): time to first vomiting, control 35.1 ± 4.4
Procedure: b) Activity against CisPlatin-induced vomiting
Female and male Suncus murinus animals weighing 23 to 68 g were used, one group consisting of 5 to 10 animals. According to the method of Matsuki et al. (Japan J. Pharmacol., 48, 303 (1988)], the animals were isolated in metal mesh cage (one animal/one cage). One hour after, the test compound or physiological saline (control) was intraperitoneally administered (i.p.) in a volume of 0.1 ml/10 g of body weight. Further 30 minutes after administration of the test compound, Cisplatin (40 mg/kg) was intraperitoneally administered. After administration of Cisplatin, a time period (latency) for the first vomiting and the number of frequencies (episodes) of vomiting caused in the period of 5 to 120 minutes after administration were determined. The latency and the number of frequencies in the test compound administered group were compared with those in the control group. The test of significance was performed by Student's t-test.

ddY strain male mice = experiment: Acute toxicity (MLD, Minimum Lethal Dose); format: in vivo; conditions: 7 days observation
Procedure: The test compound was orally and intraperitoneally administered to ddY strain male mice weighing 20 to 25 g. MLD (Minimum Lethal Dose) was determined by observing the mortality for 7 days after the administration.

| Compound | Number of Vomiting (Episodes) (mean ± S.E.M.) ([1]; 0.1 mg/kg i.p.) | Latency (mean ± S.E.M.) ([1]; 0.1 mg/kg i.p.) [min] | Number of Vomiting (Episodes) (mean ± S.E.M.) ([1]; 0.5 mg/kg i.p., *p < 0.05) | Latency (mean ± S.E.M.) ([1]; 0.5 mg/kg i.p., *p < 0.05) [min] | MLD (Minimum Lethal Dose) (ddY strain male mice; i.p.) [mg/kg] | MLD (Minimum Lethal Dose) (ddY strain male mice; p.o.) [mg/kg] |
| --- | --- | --- | --- | --- | --- | --- |
| CCCCn1c(=O)cc(C(=O)O[C@H]2C[C@H]3CC[C@@H](C2)N3C)c2ccccc21 [Compound 1Sa, Endo-(8-methyl-8-azabicyclo[3.2.1]oct-3-yl)-1-(n-butyl)-2-oxo-1,2-dihydro-4-quinolinecarboxylate] | 18.0 ± 1.6 | 44.3 ± 2.0 | 6.8 ± 2.0 | 71.5 ± 12.9 | 100 | 200 |
| CCCn1c(=O)cc(C(=O)O[C@H]2C[C@H]3CC[C@@H](C2)N3C)c2ccccc21 [Compound 2Sa, Endo-(8-methyl-B-azabicyclo[3.2.1]oct-3-yl)2-oxo-l-(n-propyl)-1,2-dihydro-4-quinolinecarboxylate] |  |  |  |  | 100 | 200 |
| CC(C)n1c(=O)cc(C(=O)O[C@H]2C[C@H]3CC[C@@H](C2)N3C)c2ccccc21 [Compound 3Sa, Endo-(8-methyl-8-azabicyclo[3.2.1]oct-3-yl)l-isopropyl-2-oxo-1,2-dihydro-4-quinolinecarboxylate] |  |  |  |  | 100 | 200 |
| CCCCn1c(=O)cc(C(=O)N[C@H]2C[C@H]3CC[C@@H](C2)N3C)c2ccccc21 [Compound 6Sa, Endo-N-(8-methyl-8-azabicyclo[3.2.1]oct-3-yl)-1-(n-butyl)-2-oxo-1,2-dihydro-4-quinolinecarboxamide] |  |  |  |  | > 100 | > 300 |
| CCCn1c(=O)cc(C(=O)N[C@H]2C[C@H]3CC[C@@H](C2)N3C)c2ccccc21 [Compound 7Sa, Endo-N-(8-methyl-8-azabicyclo[3.2.1]oct-3-yl)-1-(n-propyl)-2-oxo-1,2-dihydro-4-quinolinecarboxamide] |  |  |  |  | > 100 | > 300 |
| CN1[C@@H]2CC[C@H]1C[C@@H](NC(=O)c1cc(=O)n(C)c3ccccc13)C2 [Compound 8Sa, Endo-N-(8-methyl-8-azabicyclo[3.2.1]oct-3-yl)-1-methyl-2-oxo-1,2-dihydro-4-quinolinecarboxamide] |  |  |  |  | > 100 | > 300 |
| CCCCn1c(=O)cc(C(=O)N[C@@H]2C[C@H]3CC[C@@H](C2)N3C)c2ccccc21 [Compound 9Sa, Exo-N-(8-methyl-8-azabicyclo[3.2.1]oct-3-yl)-1-(n-butyl)-2-oxo-1,2-dihydro-4-quinolinecarboxamide] |  |  |  |  | 100 | > 300 |
| CCCCn1c(=O)cc(C(=O)N[C@H]2C[C@H]3CCC[C@@H](C2)N3C)c2ccccc21 [Compound 10Sa, Endo-N-(9-methyl-9-azabicyclo[3.3.1]non-3-yl)-1-(n-butyl)-2-oxo-1,2-dihydro-4-quinolinecarboxamide] |  |  |  |  | 100 | 300 |
| CCCCn1c(=O)c(C(=O)N[C@H]2C[C@H]3CC[C@@H](C2)N3C)c(O)c2ccccc21 [Compound 11Sa, Endo-N-(8-methyl-8-azabicyclo[3.2.1]oct-3-yl)-1-(n-butyl)-4-hydroxy-2-oxo-1,2-dihydro-3-quinolinecarboxamide] |  |  |  |  | > 100 | > 300 |
| CCn1c(=O)cc(C(=O)O[C@H]2C[C@H]3CC[C@@H](C2)N3C)c2ccccc21 [Compound 13Sa, Endo-(8-methyl-8-azabicyclo[3.2.1]oct-3-yl) 1-ethyl-2-oxo-1,2-dihydro-4-quinolinecarboxylate] |  |  |  |  | 100 | 200 |
| CC(C)Cn1c(=O)cc(C(=O)O[C@H]2C[C@H]3CC[C@@H](C2)N3C)c2ccccc21 [Compound 14Sa, Endo-(8-methyl-8-azabicyclo[3.2.1]oct-3-yl) 1-isobutyl-2-oxo-1,2-dihydro-4-quinolinecarboxylate] |  |  |  |  | 50 | 200 |
| CC(C)CCn1c(=O)cc(C(=O)O[C@H]2C[C@H]3CC[C@@H](C2)N3C)c2ccccc21 [Compound 15Sa, Endo-(8-methyl-8-azabicyclo[3.2.1]oct-3-yl) 1-isopentyl-2-oxo-1,2-dihydro-4-quinolinecarboxylate] |  |  |  |  | 100 | 300 |
| CCCCCn1c(=O)cc(C(=O)O[C@H]2C[C@H]3CC[C@@H](C2)N3C)c2ccccc21 [Compound 16Sa, Endo-(8-methyl-8-azabicyclo[3.2.1]oct-3-yl)2-oxo-1-n-pentyl-1,2-dihydro-4-quinolinecarboxylate] |  |  |  |  | 100 | 300 |
| CCCCCCn1c(=O)cc(C(=O)O[C@H]2C[C@H]3CC[C@@H](C2)N3C)c2ccccc21 [Compound 17Sa, Endo-(8-methyl-8-azabicyclo[3.2.1]oct-3-yl) 1-(n-hexyl)-2-oxo-1,2-dihydro-4-quinolinecarboxylate] |  |  |  |  | 100 | > 300 |
| CN1[C@@H]2CC[C@H]1C[C@@H](OC(=O)c1cc(=O)n(Cc3ccccc3)c3ccccc13)C2 [Compound 18Sa, Endo-(8-methyl-8-azabicyclo[3.2.1]oct-3-yl) 1-benzyl-2-oxo-1,2-dihydro-4-quinolinecarboxylate] |  |  |  |  | 100 | > 300 |
| CN1[C@@H]2CC[C@H]1C[C@@H](OC(=O)c1cc(=O)n(-c3ccccc3)c3ccccc13)C2 [Compound 19Sa, Endo-(8-methyl-8-azabicyclo[3.2.1]oct-3-yl) 2-oxo-1-phenyl-1,2-dihydro-4-quinolinecarboxylate] |  |  |  |  | 100 | 200 |
| CCCCn1c(=O)c(CC)c(C(=O)O[C@H]2C[C@H]3CC[C@@H](C2)N3C)c2ccccc21 [Compound 20Sa, Endo-(8-methyl-8-azabicyclo[3.2.1)oct-3-yl) 1-(n-butyl)-3-ethyl-2-oxo-1,2-dihydro-4-quinolinecarboxylate] |  |  |  |  | 100 | 200 |
| CN1[C@@H]2CC[C@H]1C[C@@H](OC(=O)c1c(O)c3cccnc3n(-c3ccccc3)c1=O)C2 [Compound 24Sa, Endo-(8-methyl-8-azabicyclo[3.2.1]oct-3-yl) 4-hydroxy-2-oxo-1-phenyl-1,2-dihydro-1,8-naphthylidine-3-carboxylate] |  |  |  |  | > 100 | > 300 |
| CCCCn1c(=O)c(O)c(C(=O)N[C@H]2C[C@H]3CC[C@@H](C2)N3C)c2ccccc21 [Compound 29Sa, Endo-N-(8-methyl-8-azabicyclo[3.2.1]oct-3-yl)-1-n-butyl-3-hydroxy-2-oxo-1,2-dihydro-4-quinolinecarboxamide] |  |  |  |  | > 100 | > 300 |
| CN1[C@@H]2CC[C@H]1C[C@@H](NC(=O)c1c(O)c3ccccc3n(-c3ccccc3)c1=O)C2 [Compound 30Sa, Endo-N-(8-methyl-8-azabicyclo[3.2.1]oct-3-yl)-4-hydroxy-2-oxo-1-phenyl-1,2-dihydro-3-quinolinecarboxamide] |  |  |  |  | 100 | > 300 |
| CCCCn1c(=O)c(C(=O)N[C@H]2C[C@H]3CC[C@@H](C2)N3C)c(O)c2cccnc21 [Compound 32Sa, Endo-N-(8-methyl-azabicyclo[3.2.1]oct-3-yl)-1-(butyl)-4-hydroxy-2-oxo-1,2-dihydro-1,8-naphthyridine-3-carboxamide] |  |  |  |  | 100 | > 300 |
